Test results: patent publication US20230381157A1, “RIFABUTIN FOR THE TREATMENT OF ACINETOBACTER BAUMANNII” (University of Southern California, priority 2018, published 2023)

Test system: A. baumannii AB5075 transposon disruption mutants
Experiment: microbe, parasite or virus in culture
Format: cell-based, Acinetobacter baumannii

SMILES: CO[C@H]1/C=C/O[C@@]2(C)Oc3c(C)c(O)c4c(c3C2=O)C2=NC3(CCN(CC(C)C)CC3)NC2=C(NC(=O)/C(C)=C\C=C\[C@H](C)[C@H](O)[C@@H](C)[C@@H](O)[C@@H](C)[C@H](OC(C)=O)[C@@H]1C)C4=O [rifabutin]
- Rifabutin MIC (AB00188, disrupted gene aroP, RPMI, listed as RBT): 0.05 µg/mL
- Rifabutin MIC (AB00190, disrupted gene aroP, RPMI, listed as RBT): 0.05 µg/mL
- Rifabutin MIC (AB00215, disrupted gene tryP, RPMI, listed as RBT): 0.05 µg/mL
- Rifabutin MIC (AB00216, disrupted gene tryP, RPMI, listed as RBT): 0.05 µg/mL
- Rifabutin MIC (AB01188, ABUW_0449 (hypothetical protein), MHII): 1.56 µg/mL
- Rifabutin MIC (AB01188, ABUW_0449 (hypothetical protein), RPMI): 0.05 µg/mL
- Rifabutin MIC (AB01192, ABUW_0449, MHII): 1.56 µg/mL
- Rifabutin MIC (AB01192, ABUW_0449, RPMI): 0.05 µg/mL
- Rifabutin MIC (AB01494, ABUW_0559 (putative phage-related membrane protein), MHII): 3.13 µg/mL
- Rifabutin MIC (AB01494, ABUW_0559 (putative phage-related membrane protein), RPMI): 0.05 µg/mL
- Rifabutin MIC (AB01495, ABUW_0559, MHII): 6.25 µg/mL
- Rifabutin MIC (AB01495, ABUW_0559, RPMI): 0.05 µg/mL
- Rifabutin MIC (AB02034, ABUW_0745 (hypothetical protein), MHII): 0.78 µg/mL
- Rifabutin MIC (AB02034, ABUW_0745 (hypothetical protein), RPMI): 0.05 µg/mL
- Rifabutin MIC (AB02035, ABUW_0745, MHII): 1.56 µg/mL
- Rifabutin MIC (AB02035, ABUW_0745, RPMI): 0.05 µg/mL
- Rifabutin MIC (AB02204, disrupted gene aroP, RPMI, listed as RBT): 0.05 µg/mL
- Rifabutin MIC (AB02205, disrupted gene aroP, RPMI, listed as RBT): 0.05 µg/mL
- Rifabutin MIC (AB02891, ABUW_1069 (NADH dehydrogenase), MHII): 3.13 µg/mL
- Rifabutin MIC (AB02891, ABUW_1069 (NADH dehydrogenase), RPMI): 0.05 µg/mL
- Rifabutin MIC (AB02892, ABUW_1069, MHII): 6.25 µg/mL
- Rifabutin MIC (AB02892, ABUW_1069, RPMI): 0.05 µg/mL
- Rifabutin MIC (AB03015, disrupted gene aroP, RPMI, listed as RBT): 0.05 µg/mL
- Rifabutin MIC (AB03608, disrupted gene hisJ, RPMI, listed as RBT): 0.05 µg/mL
- Rifabutin MIC (AB03612, disrupted gene hisM, RPMI, listed as RBT): 0.05 µg/mL
- Rifabutin MIC (AB03616, disrupted gene hisM, RPMI, listed as RBT): 0.05 µg/mL
- Rifabutin MIC (AB03618, disrupted gene hisM, RPMI, listed as RBT): 0.05 µg/mL
- Rifabutin MIC (AB04576, ABUW_1741 (outer membrane protein assembly factor BamA), MHII): 1.56 µg/mL
- Rifabutin MIC (AB04576, ABUW_1741 (outer membrane protein assembly factor BamA), RPMI): 0.05 µg/mL
- Rifabutin MIC (AB04593, ABUW_1750 (HAD-superfamiy hydrolase), MHII): 3.13 µg/mL
- Rifabutin MIC (AB04593, ABUW_1750 (HAD-superfamiy hydrolase), RPMI): 0.05 µg/mL
- Rifabutin MIC (AB04594, ABUW_1750, MHII): 3.13 µg/mL
- Rifabutin MIC (AB04594, ABUW_1750, RPMI): 0.05 µg/mL
- Rifabutin MIC (AB04749, ABUW_1817 (putative peroxidase(alpha/beta hydrolase)), MHII): 3.13 µg/mL
- Rifabutin MIC (AB04749, ABUW_1817 (putative peroxidase(alpha/beta hydrolase)), RPMI): 0.05 µg/mL
- Rifabutin MIC (AB04750, ABUW_1817, MHII): 3.13 µg/mL
- Rifabutin MIC (AB04750, ABUW_1817, RPMI): 0.05 µg/mL
- Rifabutin MIC (AB5075-UW (parent strain), RPMI, listed as RBT): 0.05 µg/mL
- Rifabutin MIC (AB05089, ABUW_1933 (NADP-dependent fatty aldehyde dehydrogenase), MHII): 1.56 µg/mL
- Rifabutin MIC (AB05089, ABUW_1933 (NADP-dependent fatty aldehyde dehydrogenase), RPMI): 0.05 µg/mL
- Rifabutin MIC (AB05348, ABUW_2057 (alcohol dehydrogenase), MHII): 1.56 µg/mL
- Rifabutin MIC (AB05348, ABUW_2057 (alcohol dehydrogenase), RPMI): 0.05 µg/mL
- Rifabutin MIC (AB05361, ABUW_2062 (phospholipase D family protein), MHII): 1.56 µg/mL
- Rifabutin MIC (AB05361, ABUW_2062 (phospholipase D family protein), RPMI): 0.05 µg/mL
- Rifabutin MIC (AB05362, ABUW_2062, MHII): 1.56 µg/mL
- Rifabutin MIC (AB05362, ABUW_2062, RPMI): 0.05 µg/mL
- Rifabutin MIC (AB05479, ABUW_2100 (LysR family transcriptional regulator), MHII): 3.13 µg/mL
- Rifabutin MIC (AB05479, ABUW_2100 (LysR family transcriptional regulator), RPMI): 0.05 µg/mL
- Rifabutin MIC (AB05480, ABUW_2100, MHII): 1.56 µg/mL
- Rifabutin MIC (AB05480, ABUW_2100, RPMI): 0.05 µg/mL
- Rifabutin MIC (AB05672, ABUW_2165, MHII): 6.25 µg/mL
- Rifabutin MIC (AB05672, ABUW_2165, RPMI): 3.13 µg/mL
- Rifabutin MIC (AB05673, ABUW_2165, MHII): 3.13 µg/mL
- Rifabutin MIC (AB05673, ABUW_2165, RPMI): 3.13 µg/mL
- Rifabutin MIC (AB05674, ABUW_2165, MHII): 3.13 µg/mL
- Rifabutin MIC (AB05674, ABUW_2165, RPMI): 1.56 µg/mL
- Rifabutin MIC (AB05756, ABUW_2194 (acyl-CoA dehydrogenase), MHII): 1.56 µg/mL
- Rifabutin MIC (AB05756, ABUW_2194 (acyl-CoA dehydrogenase), RPMI): 0.05 µg/mL
- Rifabutin MIC (AB05757, ABUW_2194, MHII): 6.25 µg/mL
- Rifabutin MIC (AB05757, ABUW_2194, RPMI): 0.05 µg/mL
- Rifabutin MIC (AB05837, ABUW_2228 (TonB-dependent receptor), MHII): 3.13 µg/mL
- Rifabutin MIC (AB05837, ABUW_2228 (TonB-dependent receptor), RPMI): 0.05 µg/mL
- Rifabutin MIC (AB05838, ABUW_2228, MHII): 3.13 µg/mL
- Rifabutin MIC (AB05838, ABUW_2228, RPMI): 0.05 µg/mL
- Rifabutin MIC (AB06047, ABUW_2307 (biotin synthase), MHII): 0.05 µg/mL
- Rifabutin MIC (AB06047, ABUW_2307 (biotin synthase), RPMI): 0.05 µg/mL
- Rifabutin MIC (AB06049, ABUW_2307, MHII): 0.05 µg/mL
- Rifabutin MIC (AB06049, ABUW_2307, RPMI): 0.05 µg/mL
- Rifabutin MIC (AB06076, ABUW_2318 (cytosine permease), RPMI): 0.05 µg/mL
- Rifabutin MIC (AB06077, ABUW_2318, MHII): 1.56 µg/mL
- Rifabutin MIC (AB06077, ABUW_2318, RPMI): 0.05 µg/mL
- Rifabutin MIC (AB06089, ABUW_2322 (integrase), MHII): 3.13 µg/mL
- Rifabutin MIC (AB06089, ABUW_2322 (integrase), RPMI): 0.05 µg/mL
- Rifabutin MIC (AB06091, ABUW_2322, MHII): 6.25 µg/mL
- Rifabutin MIC (AB06091, ABUW_2322, RPMI): 0.05 µg/mL
- Rifabutin MIC (AB06105, disrupted gene aroP, RPMI, listed as RBT): 0.05 µg/mL
- Rifabutin MIC (AB06383, disrupted gene hisJ, RPMI, listed as RBT): 0.05 µg/mL
- Rifabutin MIC (AB06386, disrupted gene hisP, RPMI, listed as RBT): 0.05 µg/mL
- Rifabutin MIC (AB06392, disrupted gene hisP, RPMI, listed as RBT): 0.05 µg/mL
- Rifabutin MIC (AB06694, ABUW_2539 (IS4 family transposase), MHII): 3.13 µg/mL
- Rifabutin MIC (AB06694, ABUW_2539 (IS4 family transposase), RPMI): 0.05 µg/mL
- Rifabutin MIC (AB06695, ABUW_2539, MHII): 3.13 µg/mL
- Rifabutin MIC (AB06695, ABUW_2539, RPMI): 0.05 µg/mL
- Rifabutin MIC (AB06731, ABUW_2557 (hypothetical protein(epoxyqueuosine reductase QueH)), MHII): 3.13 µg/mL
- Rifabutin MIC (AB06731, ABUW_2557 (hypothetical protein(epoxyqueuosine reductase QueH)), RPMI): 0.05 µg/mL
- Rifabutin MIC (AB06732, ABUW_2557, MHII): 6.25 µg/mL
